Where only a bound is given, the exact number is not on record here.

The results in this text go back to patent EP4556004A1 (priority 2023, dated 2025).

This assay deals with SARS-CoV-2. Kind of assay: SARS-CoV-2 antiviral assay (dose-response, automated confocal imaging of infected cells). It is filed as cell-based, severe acute respiratory syndrome coronavirus-2. The note with it: SARS-CoV-2, Vero81-derived F1G-red cells, MOI 0.2, 16 h, compounds at 1.56-25 µM. Here is the method: Dose-response experiments were conducted to determine half-maximal inhibitory concentration, IC50 of the compounds on severe acute respiratory syndrome coronavirus-2 (SARS-CoV-2). Vero81-derived F1G-red cells seeded in 384-well plate were inoculated with SARS-CoV-2 at a multiplicity of infection (MOI) of 0.2, at 37°C, in the presence of each compound at 1.56, 3.13, 6.25, 12.5 and 25 µM. Images were acquired 16 h later using an InCell-6500 automated confocal microscope (Cytiva, Marlborough, United States). Infected cells and total cell numbers were quantified as previously described. Percentage of infection relative to the DMSO controls were obtained and IC50 were calculated using Prism 10 software (Graph Pad Inc., La Jolla, CA, USA). […] Table 2. IC50 of pure and synthetic compounds on SARS-CoV-2

[1] abbreviates: Severe acute respiratory syndrome coronavirus 2, 16 h.

The IC50 is the concentration that gives 50% inhibition. Low readings indicate greater potency, high ones weaker potency. Under setting [1], `CCC(C)C(=O)C1=C(O)C(CC=C(C)C)=C(O)C(CC=C(C)C)(CC=C(C)C)C1=O` (centres unmarked) [AH8-F2, 3,5-dihydroxy-4,6,6-tris(3-methylbut-2-en-1-yl)-2-(2-methylbutanoyl)cyclohexa-2,4-dien-1-one] returned an IC50 of less than 25 µM.

`CCCC(=O)C1=C(O)C(CC=C(C)C)=C(O)C(CC=C(C)C)(CC=C(C)C)C1=O` [AH10-F2, 2-butyryl-3,5-dihydroxy-4,6,6-tris(3-methylbut-2-en-1-yl)cyclohexa-2,4-dien-1-one] showed an IC50 under setting [1] of less than 14 µM.

As for `CC(C)=CCC1=C(O)C(CC=C(C)C)(CC=C(C)C)C(=O)C(C(=O)C(C)C)=C1O` [AH15-F1, 3,5-dihydroxy-2-isobutyryl-4,6,6-tris(3-methylbut-2-en-1-yl)cyclohexa-2,4-dien-1-one], under setting [1], the IC50 is less than 14 µM.

`CC(=O)C1=C(O)C(CC=C(C)C)=C(O)C(CC=C(C)C)(CC=C(C)C)C1=O` [AH16-F2, 2-acetyl-3,5-dihydroxy-4,6,6-tris(3-methylbut-2-en-1-yl)cyclohexa-2,4-dien-1-one]: under setting [1], the IC50 is more than 25 µM.

As for `CCC(=O)C1=C(O)C(CC=C(C)C)=C(O)C(CC=C(C)C)(CC=C(C)C)C1=O` [AH17-F2, 3,5-dihydroxy-4,6,6-tris(3-methylbut-2-en-1-yl)-2-propionylcyclohexa-2,4-dien-1-one], the IC50 under setting [1] is more than 25 µM.

`CCCCC(=O)C1=C(O)C(CC=C(C)C)=C(O)C(CC=C(C)C)(CC=C(C)C)C1=O` [AH18-F4, 3,5-dihydroxy-4,6,6-tris(3-methylbut-2-en-1-yl)-2-pentanoylcyclohexa-2,4-dien-1-one] yielded an IC50 under setting [1] of less than 14 µM.

In the case of `CC(C)=CCC1=C(O)C(CC=C(C)C)(CC=C(C)C)C(=O)C(C(=O)CCC(C)C)=C1O` [AH39-F1, 3,5-dihydroxy-4,6,6-tris(3-methylbut-2-en-1-yl)-2-(4-methylpentanoyl)cyclohexa-2,4-dien-1-one], under setting [1], the IC50 was less than 25 µM.

`CCC(C)CC(=O)C1=C(O)C(CC=C(C)C)=C(O)C(CC=C(C)C)(CC=C(C)C)C1=O` (centres unmarked) [AH40-F1, 3,5-dihydroxy-4,6,6-tris(3-methylbut-2-en-1-yl)-2-(3-methylpentanoyl)cyclohexa-2,4-dien-1-one] yielded an IC50 under setting [1] of more than 25 µM.

With `CC(C)=CCC1=C(O)C(CC=C(C)C)(CC=C(C)C)C(=O)C(C(=O)C=Cc2ccccc2)=C1O` [AH41-F1, 2-cinnamoyl-3,5-dihydroxy-4,6,6-tris(3-methylbut-2-en-1-yl)cyclohexa-2,4-dien-1-one], the IC50 under setting [1] is less than 25 µM.

On to `CC(C)=CCc1c(O)cc(O)c(C(=O)C(C)C)c1O` [AH62-F2, 2-methyl-1-(2,4,6-trihydroxy-3-(3-methylbut-2-en-1-yl)phenyl)propan-1-one], for which, under setting [1], the IC50 is less than 7 µM.

`CC(C)=CCC1(CC=C(C)C)C(=O)C(C(=O)C(C)C)=C(O)C(C(=O)C(C)C)=C1O` [AH66-F1, 1,1'-(2,4-dihydroxy-5,5-bis(3-methylbut-2-en-1-yl)-6-oxocyclohexa-1,3-diene-1,3-diyl)bis(2-methylpropan-1-one)] displayed a half-maximal inhibitory concentration (IC50) under setting [1] of less than 25 µM.

In the case of `CC(C)=CCC1=C(O)C(C(=O)C(C)C)=C(O)C(CC=C(C)C)(CC=C(C)C)C1=O` [Colupulone, Co-lupulone], the half-inhibitory concentration (IC50) was less than 7 µM.

The compound `CC(C)=CCC1=C(O)C(CC=C(C)C)(CC=C(C)C)C(=O)C(C(=O)C(C)C)=C1O` [LB.70-F2, 3,5-dihydroxy-4,6,6-tris(3-methylbut-2-en-1-yl)-2-(2-methylpropanoyl)cyclo-hexa-2,4-dien-1-one] displayed an IC50 of less than 7 µM.

Turning to `CC(C)=CCC1=C(O)C(C(=O)CC(C)C)=C(O)C(CC=C(C)C)(CC=C(C)C)C1=O` [Lupulone], the IC50 under setting [1] is less than 7 µM.
